Where two headings read alike, the source gives them in different places.
Experiments:
[1] = Incidence of hypophosphatemia / s-phosphate in randomized open-label trials IDA-04 and IDA-05; type: in vivo, human
Description: Two prospective randomized, open-label, comparative trials were performed comparing the incidence of hypophosphatemia in relation to treatment with iron isomaltoside (“IIM”, tradename Monofer®, Monoferric®) and ferric carboxymaltose (“FCM”, trade name Injectafer, Ferinject) in adult human subjects with iron deficiency anaemia.
(§1) The trial was a randomized, open-label, comparative trial. Subjects with Iron Deficiency Anaemia (IDA) were randomized 1:1 to one treatment course of one of the following treatments: • Group A: iron isomaltoside 1000 (Monofer®, Pharmacosmos, Holbok, Denmark, termed iron isomaltoside in the following), 1000 mg at baseline • Group B: ferric carboxymaltose (Ferinject®/Injectafer®, Vifor Inc, Switzerland), 750 mg at baseline and day 7, cumulative dose: 1500 mg
The primary endpoint was the incidence of hypophosphatemia (defined as s-phosphate <2 mg/dL) at any time from baseline to day 35. […]
The following safety laboratory assessments were analysed: • S-phosphate: inorganic phosphorous forms an ammonium phosphomolybdate complex having the formula (NH4)3[PO4](MoO3)12 with ammonium molybdate in the presence of sulfuric acid. The complex was determined photometrically in the ultraviolet region (340 nm) of the spectrum using the Roche Modular and Cobas Analyzer. • iFGF23 and cFGF23: the human intact FGF23 was measured by the 2nd generation Elisa kit manufactured by Immonotropics, Inc, San Clemente, CA. […] The human C-terminal FGF23 was measured by the Elisa kit manufactured by Immonotropics, Inc, San Clemente, CA. […] After evaporation under nitrogen, the residue was reconstituted and analyzed using Liquid Chromatography (LC) with Tandem Mass Spectrometric detection (MS/MS). […]

[2] = Respiratory muscles strength (MIP and MEP), trials IDA-04/IDA-05; type: in vivo, human; conditions: relative to the comparator IV iron treatment
Description: as §1, with “1500 mg […]” for “1500 mg”
The measurements of MIP and MEP provided a non-invasive clinical method for evaluating the strength of respiratory muscles, and it was the most widely used test to assess muscle pressures [ATS/ERS statement, 2002]. […] MIP and MEP were measured by MicroRPM (CareFusion Germany 234 GmbH, Hoechberg, Germany). […]

[3] = cited from earlier work
[4] = test system: PTH; assay: Intact PTH sandwich immunoassay, trials IDA-04/IDA-05; type: in vivo, human; conditions: IDA-04 and IDA-05 combined
Excerpt: The term “serum parathyroid hormone (PTH)” as used herein refers to the level of serum parathyroid hormone in blood serum as measured using a two-site sandwich immunoassay using direct chemiluminometric technology, which used constant amounts of two anti-human PTH antibodies. PTH, produced by the parathyroid gland, is the major circulating factor regulating extracellular calcium concentration. Abnormally low ionized calcium concentrations trigger the secretion of PTH. The PTH molecules bind to type 1 PTH receptors in target tissues and initiate a sequence of reactions that results in an increase in extracellular calcium concentrations. PTH stimulates osteoclastic bone resorption resulting in the release of calcium from bone. […]
The following safety laboratory assessments were analysed: • S-phosphate: inorganic phosphorous forms an ammonium phosphomolybdate complex having the formula (NH4)3[PO4](MoO3)12 with ammonium molybdate in the presence of sulfuric acid. The complex was determined photometrically in the ultraviolet region (340 nm) of the spectrum using the Roche Modular and Cobas Analyzer. • iFGF23 and cFGF23: the human intact FGF23 was measured by the 2nd generation Elisa kit manufactured by Immonotropics, Inc, San Clemente, CA. […] The human C-terminal FGF23 was measured by the Elisa kit manufactured by Immonotropics, Inc, San Clemente, CA. […]

[5] = FCM 750 mg at baseline and day 7 vs JIM 1000 mg at baseline, subjects with IDA, baseline to day 35
[6] = compared to iron dextran, iron sucrose and iron isomaltoside 1000

For ferric carboxymaltose [FCM], the “rate of hypophosphatemia, moderate to severe form with serum phosphate below 2 mg/dL” value [1, 5] was “significantly higher”, the “rate of hypophosphatemia, severe form of serum phosphate at or below 1.0 mg/dL” value [1, 5] was “significantly higher” and the serum phosphate ([1]; after FCM treatment) was “decrease”. For the same substance, the “respiratory muscle strength (maximal inspiratory and/or expiratory pressure)” value [2] was “reduced”, the “risk for iFGF23-mediated reduction of serum phosphate levels and development of hypophosphatemia” value ([3]; clinical trials and case reports, Wolf et al., 2013) was “highest risk” and the “time to minimum serum phosphorous values” ([3]; clinical trials, EU SmPC) was “approximately 2 weeks”. The prevalence of hypophosphatemia [3, 6] was “higher prevalence”, the “reduction in serum phosphate” value [3, 6] was “larger and longer reduction” and the “time until serum phosphorous returned to within the range of baseline” value ([3]; following treatment, clinical trials, EU SmPC) was 4 to 12 weeks. The serum phosphate ([3]; women with IDA secondary to heavy uterine bleeding, Wolf et al., 2013) was “reduced” and the PTH [4] was “increase”.
